Assay results taken from patent US10918716B2, “Triple combination therapy for treating Crohn's disease” (Millennium Pharmaceuticals, Inc., priority 2016, dated 2021).

How the values were obtained:
lymphotoxin (TNF-β) = molecular target: T1, lymphotoxin (TNF-β) (Homo sapiens, UniProt P01374); settings: cited from earlier work
T1 sequence (P01374 35-205): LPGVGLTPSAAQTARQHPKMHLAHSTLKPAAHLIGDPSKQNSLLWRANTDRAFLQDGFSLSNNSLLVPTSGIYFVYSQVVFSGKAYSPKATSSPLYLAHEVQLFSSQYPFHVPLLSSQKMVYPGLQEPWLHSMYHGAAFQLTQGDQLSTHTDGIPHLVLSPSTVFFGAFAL

patients with CD = settings: cited from earlier work
[1] = multiple-dose pharmacokinetics of vedolizumab, IV infusion, patients with UC; type: in vivo, human; settings: dose range 2 to 10 mg/kg
Procedure: (§1) In previous studies, single-dose pharmacokinetics, pharmacodynamics (α4β7 receptor saturation), safety, and tolerability of vedolizumab were investigated over a dose range of 0.2 to 10 mg/kg in healthy volunteers (intravenous [IV] infusion) (unpublished data). After reaching peak concentrations, vedolizumab serum concentrations fell in a generally biexponential fashion until concentrations reached approximately 1 to 10 ng/mL. Thereafter, concentrations appeared to fall in a nonlinear fashion. The multiple-dose pharmacokinetics and pharmacodynamics of vedolizumab have been investigated following IV infusions of 0.5 and 2 mg/kg in patients with CD and infusion of 2, 6, and 10 mg/kg in patients with UC.

α4β7 receptor = molecular target: T2, α4β7 receptor (Homo sapiens, UniProt P13612+P26010); test: pharmacodynamics (α4β7 receptor saturation) after multiple-dose administration; type: in vivo; settings: following the initial dose
T2 construct: endogenous in cells; host or cells: lymphocytes of patients with CD or UC (in vivo)
Procedure: as §1

Adalimumab
binding or inactivation of lymphotoxin (TNF-β) (lymphotoxin (TNF-β)): does not bind or inactivate | maintaining clinical remission (patients with CD; 40 mg weekly or every other week, patients with CD who responded to adalimumab induction therapy): effective | corticosteroid-sparing effects (patients with CD; patients with CD): corticosteroid-sparing effects

vedolizumab: humanized antibody (Ig) G1 mAb directed against the human lymphocyte integrin α4β7; CAS 943609-66-3
pharmacokinetics dose linearity [1]: generally linear | α4β7 receptor saturation (α4β7 receptor): rapid and near complete
